The values below come from patent US12258367B2, “Glucoside derivative that acts as SGLT1 inhibitor and application thereof” (MEDSHINE DISCOVERY INC., priority 2019, dated 2025).

Marks after values point to notes of the source that are not given here.

In one data set the target is T1, Human-SGLT2 (Homo sapiens, UniProt P31639).
T1 sequence (P31639 1-672): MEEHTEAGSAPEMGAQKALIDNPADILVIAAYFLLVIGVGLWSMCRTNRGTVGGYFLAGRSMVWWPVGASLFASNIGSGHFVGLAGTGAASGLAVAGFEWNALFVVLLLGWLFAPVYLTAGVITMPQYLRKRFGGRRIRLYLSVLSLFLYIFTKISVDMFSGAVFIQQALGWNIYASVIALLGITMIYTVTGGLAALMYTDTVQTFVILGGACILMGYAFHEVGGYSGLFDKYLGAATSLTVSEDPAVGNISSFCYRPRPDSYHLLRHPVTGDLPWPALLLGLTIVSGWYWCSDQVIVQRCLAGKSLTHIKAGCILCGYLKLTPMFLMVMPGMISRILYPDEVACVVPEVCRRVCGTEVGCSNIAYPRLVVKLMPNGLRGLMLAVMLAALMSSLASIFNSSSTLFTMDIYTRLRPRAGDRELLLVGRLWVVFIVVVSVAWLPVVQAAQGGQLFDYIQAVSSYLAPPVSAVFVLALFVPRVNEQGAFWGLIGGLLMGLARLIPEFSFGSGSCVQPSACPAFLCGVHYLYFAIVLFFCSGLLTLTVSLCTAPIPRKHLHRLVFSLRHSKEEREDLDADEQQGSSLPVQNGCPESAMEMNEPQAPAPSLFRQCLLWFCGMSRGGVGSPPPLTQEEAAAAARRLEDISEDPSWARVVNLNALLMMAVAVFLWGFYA
Briefly: SGLT2 glucose transport assay ([14C]-methyl α-D-glucopyranoside uptake). The note with it: cells stably expressing Human-SGLT2, 37° C. for 2 hours. It counts as cell-based. The method, then:
The effect of the compound on the glucose transport activity of the SGLT2 transporter was detected by measuring the amount of [^14C]-labeled glucose entering cells highly expressing Human-SGLT2.
The cells stably expressing Human-SGLT2 used in the assay were constructed by Shanghai WuXi AppTec. The SGLT2 cells were plated on a 96-well cell culture plate (Greiner) and cultured at 5% CO2, 37° C. overnight.

The next data set addresses T2, Human-SGLT1 (Homo sapiens, UniProt P13866).
T2 sequence (P13866 1-664): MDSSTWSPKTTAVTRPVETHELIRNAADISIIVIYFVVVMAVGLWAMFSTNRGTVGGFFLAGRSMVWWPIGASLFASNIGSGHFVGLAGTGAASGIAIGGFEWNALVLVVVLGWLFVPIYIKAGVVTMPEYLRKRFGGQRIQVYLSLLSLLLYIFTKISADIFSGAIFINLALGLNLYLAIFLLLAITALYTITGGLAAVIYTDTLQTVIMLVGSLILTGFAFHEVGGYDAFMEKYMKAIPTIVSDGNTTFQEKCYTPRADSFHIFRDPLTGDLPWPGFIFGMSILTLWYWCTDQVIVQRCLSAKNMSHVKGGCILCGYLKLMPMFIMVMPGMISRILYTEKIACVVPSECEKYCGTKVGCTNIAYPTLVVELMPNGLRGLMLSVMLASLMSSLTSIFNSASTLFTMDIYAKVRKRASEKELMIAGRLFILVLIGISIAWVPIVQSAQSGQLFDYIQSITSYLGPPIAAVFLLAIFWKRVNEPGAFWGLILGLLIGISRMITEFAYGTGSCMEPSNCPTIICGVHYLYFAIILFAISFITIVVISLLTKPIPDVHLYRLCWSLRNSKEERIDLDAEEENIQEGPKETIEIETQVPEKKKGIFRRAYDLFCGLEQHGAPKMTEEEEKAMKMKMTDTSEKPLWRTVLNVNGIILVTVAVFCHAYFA
Briefly: SGLT1 glucose transport assay ([14C]-methyl α-D-glucopyranoside uptake). It counts as cell-based. The note with it: cells stably expressing Human-SGLT1, 37° C. for 2 hours. The method, then:
The effect of the compounds on the glucose transport activity of the SGLT1 transporter was detected by measuring the amount of [^14C]-labeled glucose entering cells highly expressing Human-SGLT1.
The cells stably expressing Human-SGLT1 used in the assay were constructed by Shanghai WuXi AppTec. The SGLT1 cells were plated on a Cytostar-T (PerkinElmer) 96-well cell culture plate and cultured at 5% CO2, 37° C. overnight.

A short description of data set [1]: In vivo DMPK study in rats. The conditions noted are these: male SD rats; for clearance / half-life / Vd: iv, 1 mg/kg intravenously; for clearance: read-out: Cl (clearance rate); for half-life: read-out: T1/2 (half-life) (converted); for Vd: read-out: VdSS (distribution volume). From the text: Purpose of the assay: Male SD rats were used as test animals to determine the blood concentration of the compound after a single administration and evaluate the pharmacokinetic behavior.
Procedure of the assay: 4 healthy adult male SD rats were selected, 2 rats in the intravenous injection group, and 2 rats in the oral group. The test compound was mixed with an appropriate amount of vehicle (10% NMP/10% solutol/80% water) for the intravenous injection group, vortexed, and sonicated to prepare a clear solution of 0.5 mg/mL. The clear solution was filtered by a microporous membrane for use. The vehicle for the oral group was 10% NMP/10% solutol/80% water. The test compound was mixed with the vehicle, and then the mixture was vortexed and sonicated to prepare a clear solution of 1 mg/mL. Rats were administered 1 mg/kg intravenously or 10 mg/kg orally, and then whole blood was collected for a certain period. Plasma was prepared. The drug concentration was analyzed by LC-MS/MS method, and the pharmacokinetic parameters were calculated by Phoenix WinNonlin software (Pharsight, USA).

A further data set deals with SD rats. As to the kind of experiment: In vivo efficacy study of oral glucose tolerance in rats (OGTT). The conditions noted are these: 5 mg/kg single gavage, then 50% glucose 2 g/kg, vehicle control 1063.4. The method, then:
After the animals were fasted for 6 hours, they were administered WXD003 or vehicle according to Table 6, and then immediately administered 50% glucose solution (2 g/kg, 4 ml/kg).
The time for sugar administration was recorded as 0 point. The blood glucose of the animals was detected at 0 minute before sugar administration, and at 15, 30, 60, 90, 120 minutes after sugar administration, respectively. A curve of glucose tolerance was drawn based on the data of time versus blood glucose, and the area under curve (AUC) was calculated.
All values were expressed as average values. Statistical analysis was evaluated using Graphpad Prism 6 one-way analysis of variance and Tukey's multiple comparison test. A p value of less than 0.05 was considered statistically significant.

For data set [2], the system named is C57BL/6J male mice. Briefly: In vivo efficacy study in diabetic mouse model induced by STZ combined with high-sugar and high-fat diet. Details: species or system C57BL/6J mice. The conditions noted are these: for Glycosylated hemoglobin after 6 hours of fasting / Blood glucose after 6 hours of fasting: HFHS. From the text: 7 week-old C57BL/6J male mice, purchased from Jiangsu GemPharmatech Co., Ltd.
1) After the animals adapted to the environment, all mice were divided into two groups according to body weight, fed according to the scheme in Table 8, and injected with vehicle and streptozotocin (STZ) for modeling;
2) According to the random blood glucose test results of the model group, mice with random blood glucose greater than 11 mmol/L were enrolled in the group to continue the administration assay;
3) The mice in the model group that meet the criteria for enrollment were divided into 3 groups, 5 in the normal group, and 10 in each model administration group. The mice were administered according to the administration schedule in Table 9;
4) After starting the administration, the level of change in animal weight was monitored every day, and the blood glucose and glycosylated hemoglobin of the mice in each group after 6 hours of fasting were detected after 4 weeks and 7 weeks of administration, respectively;
5) Data analysis: All values were expressed as average values. Statistical analysis was evaluated using Graphpad Prism 6 one-way analysis of variance and Tukey's multiple comparison test, and a p value of less than 0.05 was considered statistically significant.

Data set [3] has as its system C57BL/6J male mice. As to the kind of experiment: In vivo efficacy study in obese mouse model induced by HFHS diet. Details: species or system C57BL/6J mice. The conditions noted are these: for Blood glucose after 6 hours of fasting / Blood glucose 1 hour after meal: after 3 weeks of administration, HFHS; for Blood glucose after 6 hours of fasting: HFHS + Vehicle 10.5; for Blood glucose 1 hour after meal: HFHS + Vehicle 11.5. From the text: 5 week-old C57BL/6J male mice, purchased from Jiangsu GemPharmatech Co., Ltd.
1) After the animals adapted to the environment, they were fed a HFHS diet (Research Diet, HFHS, D12451) for 20 weeks, and then mice weighing more than 40 grams were selected for weight loss assay.
2) Animals whose body weight met the standard were adapted for vehicle administration, and then all mice were divided into 5 groups according to body weight for weight loss assay. The effect of the compound in reducing the body weight of animals was detected.
3) After starting the administration, the level of change in animal weight was monitored every day, and after 3 weeks of administration, the blood glucose levels of mice in each group after 6 hours of fasting and 1 hour after meal were detected, respectively;
4) Data analysis: All values were expressed as average values. Statistical analysis was evaluated using Graphpad Prism 6 one-way analysis of variance and Tukey's multiple comparison test, and a p value of less than 0.05 was considered statistically significant.

At Human-SGLT2, `CS[C@H]1O[C@@H](c2ccc(C)c(Cc3ccc(CCCC(=O)NC(C)(C)C(=O)NCCN(C)C)cc3)c2)[C@H](O)[C@@H](O)[C@@H]1O` [LX2761, reference compound] yielded a concentration for half-maximal inhibition (IC50) of 1.1 nM. Also, 1.1 nM corresponded to half-maximal inhibition against Human-SGLT1 (IC50). Also, in data set [1] (rat, plasma), the clearance was determined as 37.6 mL/min/kg, the half-life is 114 min and the Vd turned out to be 1.4 L/kg.
Take `CCc1ccc([C@@H]2O[C@H](SC)[C@@H](O)[C@H](O)[C@H]2O)cc1Cc1ccc(OC2CCN(C(=O)C[C@H](N)Cc3cc(F)c(F)cc3F)CC2)cc1` [WXD003]: the results for the IC50 against Human-SGLT2 and against Human-SGLT1 were 0.6 nM and 0.7 nM, respectively. The “Oral DNAUC (AUCPO/Dose)” value in data set [1] (10 mg/kg orally) is on record as 2 nM · h/mpk. Besides, the clearance in data set [1] (rat, plasma) was 32.5 mL/min/kg. For the same compound, in data set [1] (rat, plasma), the half-life was 138 min. Moreover, in data set [1] (rat, plasma), the Vd worked out at 1.5 L/kg. The bioavailability in data set [1] (rat, plasma, oral, 10 mg/kg orally vs 1 mg/kg intravenously, read-out: F % (oral bioavailability)) is 0.2%. In data set [1] (rat, po, 10 mg/kg orally, plasma), this compound returned a Cmax of 16.5 nM. In addition, in the data set with SD rats, the “OGTT blood glucose level AUC0-2 hours” value is 624.2**** mmol/L × min. Besides, the “Glycosylated hemoglobin after 6 hours of fasting” value with C57BL/6J male mice [2] (after 4 weeks of administration, 3 mg/kg orally once a day, HFHS + Vehicle 4.9) was 4.5*** %; in the data set with C57BL/6J male mice [2] (after 7 weeks of administration, 6 mg/kg (week 4 to 7) orally once a day, HFHS + Vehicle 5.2), 4.4**** %. Moreover, the “Blood glucose after 6 hours of fasting” value is given as 10.3*** mmol/L in the data set with C57BL/6J male mice [2] (after 4 weeks of administration, 3 mg/kg orally once a day, HFHS + Vehicle 13.7); 9.6**** mmol/L in the data set on C57BL/6J male mice [2] (after 7 weeks of administration, 6 mg/kg (week 4 to 7) orally once a day, HFHS + Vehicle 15.3); 9.7 mmol/L in the data set on C57BL/6J male mice [3] (0.3 mg/kg orally once a day); 9.6 mmol/L in the data set with C57BL/6J male mice [3] (1 mg/kg orally once a day); 9.7 mmol/L in the data set with C57BL/6J male mice [3] (3 mg/kg orally once a day). Also, the “weight gain of animals” value in the data set on C57BL/6J male mice [2] (after 4 weeks of administration, FIG. 3) was “can effectively control the weight gain of animals”; in the data set on C57BL/6J male mice [2] (after 7 weeks of administration, FIG. 6), “can effectively control the weight gain of animals”. For the same compound, the “Blood glucose 1 hour after meal” value was 10.5 mmol/L in the data set with C57BL/6J male mice [3] (0.3 mg/kg orally once a day), 10.2 mmol/L in the data set with C57BL/6J male mice [3] (1 mg/kg orally once a day) and 9.6* mmol/L in the data set on C57BL/6J male mice [3] (3 mg/kg orally once a day). The animal weight result in the data set on C57BL/6J male mice [3] (after 3 weeks of administration, 0.3, 1, 3 mg/kg, FIG. 7 and FIG. 8) is “can significantly reduce animal weight in a dose-dependent manner”.
Turning to `CS[C@H]1O[C@@H](c2ccc(C)c(Cc3ccc(OC4CCN(C(=O)C[C@H](N)Cc5cc(F)c(F)cc5F)CC4)cc3)c2)[C@H](O)[C@@H](O)[C@@H]1O` [WXD004], the IC50 against Human-SGLT2 and at Human-SGLT1 was 0.8 nM throughout.
For the compound `CCc1ccc([C@@H]2O[C@H](SC)[C@@H](O)[C@H](O)[C@H]2O)cc1Cc1ccc(OC2CCN(C(=O)C[C@@H](Cc3cc(F)c(F)cc3F)NC)CC2)cc1` [WXD005], the half-inhibitory concentration (IC50) against Human-SGLT2 stood at 1.4 nM; against Human-SGLT1, 3.5 nM.
Regarding `CS[C@H]1O[C@@H](c2ccc(F)c(Cc3ccc(OC4CCN(C(=O)C[C@H](N)Cc5cc(F)c(F)cc5F)CC4)cc3)c2)[C@H](O)[C@@H](O)[C@@H]1O` [WXD006], the IC50 amounted to 1.4 nM on Human-SGLT2 and 35 nM against Human-SGLT1.
In the same order, the values of `CS[C@H]1O[C@@H](c2cccc(Cc3ccc(OC4CCN(C(=O)C[C@H](N)Cc5cc(F)c(F)cc5F)CC4)cc3)c2)[C@H](O)[C@@H](O)[C@@H]1O` [WXD007] are 5.8 nM and 69 nM.

What is called IC50 is the concentration needed to halve the response being measured. What is called clearance is a measure of how efficiently the substance is removed, as volume per time. In general, bioavailability refers to the share of a dose that reaches the circulation, judged against a reference dose that is usually intravenous. The Cmax is the peak of the concentration-time curve.
